Values after ≈ are worked out from the molar mass of the structure shown.
Key:
Assay type in all cases: functional
[1] = tested on: Candida albicans; experiment: Antifungal activity against Candida albicans assessed as reduction in fungal growth incubated for 72 hrs by agar well diffusion method
[2] = tested on: Aspergillus fumigatus; experiment: Antifungal activity against Aspergillus fumigatus assessed as reduction in fungal growth incubated for 72 hrs by agar well diffusion method
[3] = tested on: Aspergillus fumigatus; experiment: Antifungal activity against Aspergillus fumigatus
[4] = tested on: Candida albicans; experiment: Antifungal activity against Candida albicans
[5] = tested on: Candida albicans; experiment: Antifungal activity against Candida albicans assessed as reduction in fungal growth incubated for 18 hrs by broth microdilution method
[6] = tested on: Aspergillus fumigatus; experiment: Antifungal activity against Aspergillus fumigatus assessed as reduction in fungal growth incubated for 20 to 24 hrs by CLSI based micro-dilution analysis; settings: time 20-24 hrs
[7] = tested on: Candida tropicalis; experiment: Antifungal activity against Candida tropicalis ATCC 750 assessed as diameter of zone of inhibition
[8] = tested on: Nakaseomyces glabratus; experiment: Antifungal activity against Candida glabrata ATCC 90030 assessed as reduction in microbial growth
[9] = tested on: Candida albicans; experiment: Antifungal activity against Candida albicans ATCC 90028 assessed as diameter of zone of inhibition
[10] = tested on: Nakaseomyces glabratus; experiment: Antifungal activity against Candida glabrata ATCC 90030 assessed as diameter of zone of inhibition
[11] = tested on: Candida albicans; experiment: Antifungal activity against Candida albicans ATCC 90028 assessed as reduction in microbial growth
[12] = tested on: Candida tropicalis; experiment: Antifungal activity against Candida tropicalis ATCC 750 assessed as reduction in microbial growth
[13] = tested on: Botryosphaeria dothidea; experiment: Fungicidal activity against Botryosphaeria dothidea assessed as fungal inhibitory rate at 200 ug/ml relative to control
[14] = tested on: Fusarium graminearum; experiment: Fungicidal activity against Gibberella zeae assessed as fungal inhibitory rate at 200 ug/ml relative to control
[15] = tested on: Sclerotinia sclerotiorum; experiment: Fungicidal activity against Sclerotinia sclerotiorum assessed as fungal inhibitory rate at 200 ug/ml relative to control
[16] = tested on: Candida albicans; experiment: Antifungal activity against Candida albicans ATCC 10231
[17] = tested on: Aspergillus fumigatus; experiment: Antifungal activity against Aspergillus fumigatus RCMB 002568 assessed as diameter of zone inhibition
[18] = tested on: Candida albicans; experiment: Antifungal activity against Candida albicans RCMB 005036 assessed as diameter of zone inhibition
[19] = tested on: Nakaseomyces glabratus; experiment: Antifungal activity against Candida glabrata ATCC 90030
[20] = tested on: Pichia kudriavzevii; experiment: Antifungal activity against Candida krusei ATCC 6258
[21] = tested on: Candida parapsilosis; experiment: Antifungal activity against Candida parapsilosis ATCC 22019; settings: Lodderomyces parapsilosis
[22] = tested on: Cryptococcus neoformans; experiment: Antifungal activity against Cryptococcus neoformans assessed as reduction in fungal growth incubated for 24 hrs by broth microdilution method
[23] = tested on: Aspergillus flavus; experiment: Antimicrobial activity against Aspergillus flavus assessed as zone of inhibition
[24] = tested on: Candida albicans; experiment: Antimicrobial activity against Candida albicans ATCC 64124 assessed as reduction in microbial growth by CLSI protocol based micro-broth dilution method
[25] = tested on: Candida albicans; experiment: Antifungal activity against azole-resistant Candida albicans ATCC 10231 assessed as reduction in fungal growth by XTT assay
[26] = tested on: Aspergillus fumigatus; experiment: Antifungal activity against Aspergillus fumigatus assessed as zone of inhibition
[27] = tested on: Aspergillus niger; experiment: Antifungal activity against Aspergillus niger assessed as zone of inhibition by disc diffusion method
[28] = tested on: Syncephalastrum racemosum; experiment: Antifungal activity against Syncephalastrum racemosum assessed as zone of inhibition
[29] = tested on: Candida albicans; experiment: Antifungal activity against azole-resistant Candida albicans ATCC 18804 assessed as fungal growth inhibition incubated for 24 hrs by CLSI protocol based broth microdilution method
[30] = tested on: Candida albicans; experiment: Antifungal activity against azole-resistant Candida albicans ATCC 18804 assessed as reduction in fungal growth by XTT assay
[31] = tested on: Candida albicans; experiment: Antifungal activity against azole-resistant Candida albicans ATCC 10231 assessed as fungal growth inhibition incubated for 24 hrs by CLSI protocol based broth microdilution method
[32] = tested on: Trichophyton rubrum; experiment: Antifungal activity against Trichophyton rubrum assessed as diameter of zone inhibition
[33] = tested on: Cryptococcus neoformans; experiment: Antifungal activity against Cryptococcus neoformans
[34] = tested on: Microsporum audouinii; experiment: Antifungal activity against Microsporum audouinii
[35] = tested on: Geotrichum candidum; experiment: Antifungal activity against Geotrichum candidum
[36] = tested on: Candida albicans; experiment: Antifungal activity against Candida albicans assessed as zone of inhibition
[37] = tested on: Rhizopus microsporus; experiment: Antifungal activity against Rhizopus microsporus assessed as diameter of inhibition zone
[38] = tested on: Aspergillus fumigatus; experiment: Antifungal activity against Aspergillus fumigatus assessed as reduction in fungal growth
[39] = tested on: Saccharomyces cerevisiae; experiment: Antimicrobial activity against Saccharomyces cerevisiae assessed as zone of inhibition by disc diffusion method
[40] = tested on: Candida albicans; experiment: Antifungal activity against Candida albicans assessed as zone of inhibition by disc diffusion method
[41] = tested on: Aspergillus niger; experiment: Antifungal activity against Aspergillus niger assessed as zone of inhibition
[42] = tested on: Candida albicans; experiment: Antifungal activity against Candida albicans assessed as diameter of inhibition zone
[43] = tested on: Candida albicans; experiment: Antifungal activity against Candida albicans SC5314 assessed as reduction in fungal growth incubated for 72 hrs by broth microdilution method
[44] = tested on: Aspergillus flavus; experiment: Antifungal activity against Aspergillus flavus assessed as zone of inhibition by disc diffusion method
[45] = tested on: Candida albicans; experiment: Antifungal activity against Candida albicans assessed as zone of inhibition by serial dilution and disc diffusion method
[46] = tested on: Saccharomyces cerevisiae; experiment: Antimicrobial activity against Saccharomyces cerevisiae assessed as zone of inhibition

SMILES: Cc1nnc2c(C#N)c(N)n(-c3ccc(N)cc3)nc1-2
- MIC [1]: 3.9 mg/L (≈ 14.7 µM)
- MIC [2]: 0.9 mg/L (≈ 3.39 µM)

SMILES: Cc1cc(Nc2ccc(=O)n(-c3ccccc3)n2)no1
- MIC [3]: 18 mg/L (≈ 67.1 µM)
- MIC [4]: 18 mg/L (≈ 67.1 µM)

SMILES: Cc1cc(=O)n2nc(C(=O)NN)nc2[nH]1
- MIC [5]: 4 mg/L (≈ 19.2 µM)

SMILES: OC[C@H]1O[C@@H](Sc2nnc(Cc3ccc4ccc5cccc6ccc3c4c56)c3ccccc23)[C@H](O)[C@H]1O
- MIC [6]: 17 mg/L (≈ 33.4 µM)

SMILES: Cc1ccc(C2C3=C(N=C4SC=CN42)[C@@]2(C)CC[C@H]4[C@@H](CC=C5C[C@@H](O)CC[C@@]54C)[C@@H]2C3)cc1 (some centres not stated)
- inhibition zone (IZ) [7]: 15 mm
- MIC [8]: > 1000 mg/L
- inhibition zone (IZ) [9]: 13 mm
- inhibition zone (IZ) [10]: 15 mm
- MIC [11]: 700 mg/L
- MIC [12]: > 1000 mg/L

SMILES: Cc1ncc(NC(=O)c2cc(Cl)nn2-c2ncccc2Cl)c(-c2noc(C)n2)n1
- inhibition at 200 µg/mL [13]: 85.9%
- inhibition at 200 µg/mL [14]: 54.9%
- inhibition at 200 µg/mL [15]: 54.1%

SMILES: CC(=O)N1CCN(c2ccc(OC[C@H]3CO[C@](Cn4ccnc4)(c4ccc(Cl)cc4Cl)O3)cc2)CC1
- MIC50 [16]: 0.78 mg/L (≈ 1.47 µM)
- inhibition zone (IZ) [17]: 23 mm
- inhibition zone (IZ) [18]: 25 mm
- MIC [19]: 0.78 mg/L (≈ 1.47 µM)
- MIC [6]: 18 mg/L (≈ 33.9 µM)
- MIC [20]: 0.78 mg/L (≈ 1.47 µM)
- MIC [21]: 0.78 mg/L (≈ 1.47 µM)

SMILES: C[C@@H]1[C@H](O)[C@@H](C)/C=C/C=C/C=C/C=C/C=C/C=C/C=C/[C@H](O[C@@H]2O[C@H](C)[C@@H](O)[C@H](N)[C@@H]2O)C[C@@H]2O[C@](O)(C[C@@H](O)C[C@@H](O)[C@H](O)CC[C@@H](O)C[C@@H](O)CC(=O)O[C@H]1C)C[C@H](O)[C@H]2C(=O)O [AMPHOTERICIN B]
- MIC [22]: 0.39 mg/L (≈ 0.422 µM)
- inhibition zone (IZ) [23]: 15 mm
- MIC [24]: 1 mg/L
- MIC [25]: 1.9 mg/L (≈ 2.06 µM)
- inhibition zone (IZ) [26]: 24 mm
- inhibition zone (IZ) [27]: 17 mm
- MIC [1]: 3.9 mg/L (≈ 4.22 µM)
- inhibition zone (IZ) [28]: 20 mm
- MIC [29]: 0.2 mg/L (≈ 0.216 µM)
- MIC [30]: 0.2 mg/L (≈ 0.216 µM)
- MIC [2]: 1.95 mg/L (≈ 2.11 µM)
- MIC [31]: 1.9 mg/L (≈ 2.06 µM)

SMILES: Clc1ccccc1C(c1ccccc1)(c1ccccc1)n1ccnc1 [CLOTRIMAZOLE]
- inhibition zone (IZ) [32]: 14 mm
- MIC [33]: 2 mg/L (≈ 5.8 µM)
- MIC [3]: 68 mg/L (≈ 197 µM)
- MIC [34]: 4 mg/L (≈ 11.6 µM)
- MIC [35]: 5 mg/L (≈ 14.5 µM)

SMILES: OC(Cn1cncn1)(Cn1cncn1)c1ccc(F)cc1F [FLUCONAZOLE]
- inhibition zone (IZ) [36]: 22 mm
- MIC [22]: 8 mg/L (≈ 26.1 µM)
- MIC50 [16]: 0.78 mg/L (≈ 2.55 µM)
- MIC [5]: 0.125 mg/L (≈ 0.408 µM)
- inhibition zone (IZ) [37]: 12 mm
- MIC [38]: < 212 mg/L
- inhibition zone (IZ) [39]: 13 mm
- inhibition zone (IZ) [40]: 2.1 mm
- MIC [24]: > 64 mg/L
- inhibition zone (IZ) [41]: 20 mm
- MIC [19]: 0.78 mg/L (≈ 2.55 µM)
- inhibition zone (IZ) [42]: 10 mm
- MIC [43]: ≤ 0.25 mg/L
- inhibition zone (IZ) [44]: 2.9 mm
- MIC [20]: 0.78 mg/L (≈ 2.55 µM)
- inhibition zone (IZ) [45]: 24 mm
- inhibition zone (IZ) [46]: 11 mm
- MIC [21]: 0.78 mg/L (≈ 2.55 µM)

Source: ChEMBL document CHEMBL6103565, “Current strategies in design and synthesis of antifungals hybrid and chimeric diazine derivatives” (Bioorg Med Chem, 2025)
